The record followed here is patent US4891369A, “2β-Substituted-methylpenicillanic acid derivatives, and salts and esters thereof” (Taiho Pharmaceutical Company, Limited, priority 1986, dated 1990).

Converted amounts (≈) assume the structure as drawn.

Holding throughout (assay): MIC assay (Japan Society of Chemotherapy), antibacterial activity
Common to all, as to assay type: cell-based

Assay [1] has as its system K. pneumoniae 101L. Conditions: Klebsiella pneumoniae, piperacillin used singly, 10^6 CFU/ml, 37° C., 20 hours, read-out: MIC piperacillin alone. As to the method: (§1) The minimal inhibitory concentration (MIC) of piperacillin in the presence of 5 μg/ml of the compounds of the present invention against various bacteria were determined by the MIC assay method of Japan Society of Chemotherapy (Chemotherapy 29(1), pp. 76-79, 1981).
(§2) The MIC value of the various compounds according to the invention and piperacillin, as used singly, were also determined. Each test strain was grown on Mueller Hinton Medium (Difco) and used for inoculation after dilution to concentration of 10^6 CFU/ml. The assay media (Mueller Hintoon Medium) containing piperacillin and the compound of the invention in a series of concentrations were inoculated with the test strain and incubated at 37° C. for 20 hours.
(§3) The minimum concentration at which no more than 5 colonies were observed was determined. […] All the test strains used in the above assay were β-lactamase producers.

For assay [2], the system named is E. coli TEM1. The settings on record: Escherichia coli, TEM1, 20 h, read-out: MIC piperacillin alone. As to the method:
as §1, §2, §3

Assay [3] concerns Citrobacter 2046E. The settings on record: piperacillin used singly, 10^6 CFU/ml, 37° C., 20 hours, read-out: MIC piperacillin alone. Here is the method:
as §1, §2, §3

For assay [4], the system named is P. mirabillis 60. The settings on record: piperacillin used singly; 10^6 CFU/ml; 37° C., 20 hours; read-out: MIC piperacillin alone. As to the method: as §1, §2, §3
The subject of assay [5] is E. coli 1573E. The settings on record: Escherichia coli, piperacillin used singly, 10^6 CFU/ml, 37° C., 20 hours, read-out: MIC piperacillin alone. Here is the method:
as §1, §2, §3

Assay [6] deals with E. coli SHV1. The settings on record: Escherichia coli, SHV1, 20 h, read-out: MIC piperacillin alone. Here is the method:
as §1, §2, §3

The test system of assay [7] is Serratia 200L. Conditions: piperacillin used singly, 10^6 CFU/ml, 37° C., 20 hours, read-out: MIC piperacillin alone. Here is the method:
as §1, §2, §3

For assay [8], the system named is E. coli OXA3. The settings on record: Escherichia coli, OXA3, 20 h, read-out: MIC piperacillin alone. Here is the method: as §1, §2, §3
Assay [9] has as its system P. aeruginosa PSE3. The settings on record: Pseudomonas aeruginosa, piperacillin used singly, 10^6 CFU/ml, 37° C., 20 hours, read-out: MIC piperacillin alone. Here is the method: as §1, §2, §3
Assay [10] has as its system S. aureus 54K. Conditions: Staphylococcus aureus, 20 h, read-out: MIC piperacillin alone. Here is the method: as §1, §2, §3
Assay [11] deals with P. aeruginosa PSE4. Conditions: Pseudomonas aeruginosa, piperacillin used singly, 10^6 CFU/ml, 37° C., 20 hours, read-out: MIC piperacillin alone. Here is the method:
as §1, §2, §3

In assay [12] the test system is Citrobacter 962L. The settings on record: piperacillin used singly, 10^6 CFU/ml, 37° C., 20 hours, read-out: MIC piperacillin alone. Here is the method: as §1, §2, §3

As to `CCN1CCN(C(=O)N[C@@H](C(=O)N[C@@H]2C(=O)N3[C@@H]2SC(C)(C)[C@@H]3C(=O)O)c2ccccc2)C(=O)C1=O` [piperacillin], the MIC in [1] is 100 µg/mL (≈ 193 µM); in [2], 100 µg/mL (≈ 193 µM); in [3], 25 µg/mL (≈ 48.3 µM); in assay [4], 1.56 µg/mL (≈ 3.01 µM); in assay [5], 6.25 µg/mL (≈ 12.1 µM); in assay [6] it was 25 µg/mL (≈ 48.3 µM). The MIC worked out at 25 µg/mL (≈ 48.3 µM) in assay [7]; 3.13 µg/mL (≈ 6.05 µM) in assay [8]; 50 µg/mL (≈ 96.6 µM) in [9]; 3.13 µg/mL (≈ 6.05 µM) in assay [10]; 200 µg/mL (≈ 386 µM) in assay [11]; 100 µg/mL (≈ 193 µM) in assay [12].
